In ChEMBL document CHEMBL1147014, “Synthesis and biological evaluation of a novel structural type of serotonin 5-HT3 receptor antagonists” (Bioorg Med Chem Lett, 2006):

Target: T1, 5-hydroxytryptamine receptor 3A (Cavia porcellus, UniProt O70212)
T1 sequence (O70212 whole entry): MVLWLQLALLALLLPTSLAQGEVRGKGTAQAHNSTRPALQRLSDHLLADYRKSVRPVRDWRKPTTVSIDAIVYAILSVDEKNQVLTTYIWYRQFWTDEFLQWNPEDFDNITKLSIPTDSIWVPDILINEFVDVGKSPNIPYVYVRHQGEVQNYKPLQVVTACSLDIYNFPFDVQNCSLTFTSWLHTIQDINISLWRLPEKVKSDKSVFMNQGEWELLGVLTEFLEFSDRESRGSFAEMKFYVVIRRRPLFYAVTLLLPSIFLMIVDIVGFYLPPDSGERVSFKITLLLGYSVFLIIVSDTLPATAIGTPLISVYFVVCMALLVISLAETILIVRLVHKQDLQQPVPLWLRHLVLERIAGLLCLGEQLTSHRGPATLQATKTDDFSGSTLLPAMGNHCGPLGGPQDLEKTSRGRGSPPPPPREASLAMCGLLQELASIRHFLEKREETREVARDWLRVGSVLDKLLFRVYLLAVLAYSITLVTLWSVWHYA
Assay: Antagonist effect against 2-methyl-5-HT activity at 5-HT3 receptor in longitudinal muscle myenteric plexus from guinea pig ileum
Assay type: functional, tissue-based
Details: read-out: pA2 (converted)

Row | Compound | Kb [µM]
1 | CCN1CCN(Cc2cc(NC(=O)c3nc4ccccc4nc3OC)ccc2O)CC1 | 12.6
2 | CCOc1nc2ccccc2nc1C(=O)Nc1cc(CN2CCN(CC)CC2)c(O)c(N2CCN(CC)CC2)c1 | > 1000
3 | CCOc1nc2ccccc2nc1C(=O)Nc1ccc(O)c(CN2CCOCC2)c1 | > 1000
4 | COc1nc2ccccc2nc1C(=O)Nc1ccc(O)c(CN2CCN(C)CC2)c1 | 2
5 | COc1nc2ccccc2nc1C(=O)Nc1cc(CN2CCCC2)c(O)c(N2CCCC2)c1 | > 1000
6 | CCOc1nc2ccccc2nc1C(=O)Nc1cc(CN2CCCC2)c(O)c(N2CCCC2)c1 | > 1000
7 | CCOc1nc2ccccc2nc1C(=O)Nc1cc(CN2CCNCC2)c(O)c(N2CCNCC2)c1 | > 1000
8 | COc1nc2ccccc2nc1C(=O)Nc1cc(CN2CCNCC2)c(O)c(N2CCNCC2)c1 | 100
9 | COc1nc2ccccc2nc1C(=O)Nc1ccc(O)c(CN2CCOCC2)c1 | 1000
10 | CCOc1nc2ccccc2nc1C(=O)Nc1cc(CN2CCN(C)CC2)c(O)c(N2CCN(C)CC2)c1 | > 1000
11 | COc1nc2ccccc2nc1C(=O)Nc1cc(CN2CCOCC2)c(O)c(N2CCOCC2)c1 | > 1000
12 | COc1nc2ccccc2nc1C(=O)Nc1cc(CN2CCN(C)CC2)c(O)c(N2CCN(C)CC2)c1 | 15.8
13 | CCN1CCN(Cc2cc(NC(=O)c3nc4ccccc4nc3OC)cc(N3CCN(CC)CC3)c2O)CC1 | 79.4
14 | CCOc1nc2ccccc2nc1C(=O)Nc1cc(CN2CCOCC2)c(O)c(N2CCOCC2)c1 | > 1000

Results, then the compound that gave them:

Row | Kb [µM] | Compound
15 | 794 | CCOc1nc2ccccc2nc1C(=O)Nc1ccc(O)c(CN2CCCCC2)c1
16 | 126 | COc1nc2ccccc2nc1C(=O)Nc1ccc(O)c(CN2CCCC2)c1
17 | 316 | CCOc1nc2ccccc2nc1C(=O)Nc1ccc(O)c(CN2CCCC2)c1
18 | 126 | CCOc1nc2ccccc2nc1C(=O)Nc1ccc(O)c(CN2CCN(CC)CC2)c1
19 | 316 | COc1nc2ccccc2nc1C(=O)Nc1ccc(O)c(CN2CCCCC2)c1
20 | 398 | CCOc1nc2ccccc2nc1C(=O)Nc1ccc(O)c(CN2CCNCC2)c1
21 | 31.6 | COc1nc2ccccc2nc1C(=O)Nc1ccc(O)c(CN2CCNCC2)c1
22 | 25.1 | CCOc1nc2ccccc2nc1C(=O)Nc1ccc(O)c(CN2CCN(C)CC2)c1
